# Patent US20120270237A9, “METHODS FOR THE IDENTIFICATION OF KINASE INTERACTING MOLECULES AND FOR THE PURIFICATION OF KINASE PROTEINS” (Cellzone AG, priority 2009, published 2012)
# Assays:
# Assay in all cases: Kinobeads competition binding with immobilized CZC25342, mixed HeLa placenta lysates (Example 5, Table 7)
# [1] = target: T1, kinases from mixed HeLa placenta lysates (Homo sapiens, UniProt O14976); details: kinase GAK; 10 μM free compound; HeLa Placenta lysate mix
# T1 construct: capturing and identification of kinases from mixed HeLa placenta lysates; endogenous in cells; host or cells: mixed lysate of HeLa cells and placenta tissue
# T1 sequence (O14976 whole entry): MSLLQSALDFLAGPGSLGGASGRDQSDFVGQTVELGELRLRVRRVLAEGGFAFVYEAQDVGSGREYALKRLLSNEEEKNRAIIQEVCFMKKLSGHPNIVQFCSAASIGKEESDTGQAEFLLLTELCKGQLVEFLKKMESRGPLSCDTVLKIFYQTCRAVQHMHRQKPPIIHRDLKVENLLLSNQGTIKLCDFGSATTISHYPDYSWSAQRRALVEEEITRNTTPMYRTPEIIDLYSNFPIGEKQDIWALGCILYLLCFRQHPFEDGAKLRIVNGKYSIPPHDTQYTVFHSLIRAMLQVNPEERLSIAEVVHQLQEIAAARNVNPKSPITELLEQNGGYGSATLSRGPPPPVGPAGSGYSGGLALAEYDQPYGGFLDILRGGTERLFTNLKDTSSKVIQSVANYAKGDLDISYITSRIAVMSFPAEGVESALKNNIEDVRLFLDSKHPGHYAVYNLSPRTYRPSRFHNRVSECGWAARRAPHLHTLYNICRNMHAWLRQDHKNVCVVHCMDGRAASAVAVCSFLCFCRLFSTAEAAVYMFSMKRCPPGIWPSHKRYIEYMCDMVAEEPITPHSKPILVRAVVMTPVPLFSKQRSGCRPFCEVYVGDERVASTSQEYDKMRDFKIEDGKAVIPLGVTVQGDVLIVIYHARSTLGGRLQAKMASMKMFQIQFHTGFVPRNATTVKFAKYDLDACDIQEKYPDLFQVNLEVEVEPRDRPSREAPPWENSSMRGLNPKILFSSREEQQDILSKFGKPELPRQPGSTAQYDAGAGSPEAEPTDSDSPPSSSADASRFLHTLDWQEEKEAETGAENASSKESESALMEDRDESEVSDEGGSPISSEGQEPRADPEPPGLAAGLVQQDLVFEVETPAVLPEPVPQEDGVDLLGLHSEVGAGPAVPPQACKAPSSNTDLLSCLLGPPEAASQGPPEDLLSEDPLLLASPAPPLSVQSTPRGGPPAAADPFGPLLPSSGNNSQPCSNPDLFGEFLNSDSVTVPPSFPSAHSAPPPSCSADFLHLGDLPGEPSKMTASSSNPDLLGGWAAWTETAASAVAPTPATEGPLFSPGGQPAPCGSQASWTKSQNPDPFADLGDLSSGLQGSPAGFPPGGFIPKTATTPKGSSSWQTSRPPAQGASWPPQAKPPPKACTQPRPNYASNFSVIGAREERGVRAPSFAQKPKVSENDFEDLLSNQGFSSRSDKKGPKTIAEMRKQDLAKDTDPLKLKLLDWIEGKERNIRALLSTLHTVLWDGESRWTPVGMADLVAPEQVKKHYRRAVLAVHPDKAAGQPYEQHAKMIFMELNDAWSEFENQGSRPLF
# Protocol: (§1) To one aliquot of cell lysate 10 μM of the free compound (FIG. 2, CZC25342) was added and allowed to bind to proteins in the lysate. Then the affinity matrix with the immobilized compound was added to capture proteins that were not interacting with the previously added free compound. Beads were separated from the lysate and bead bound proteins were eluted in SDS sample buffer and subsequently separated by SDS-Polyacrylamide gel electrophoresis (FIG. 11). Suitable gel bands were cut out and subjected to in-gel proteolytic digestion with trypsin. The second lysate aliquot was processed identically, however no free compound was added (DMSO solvent control). Peptides originating from samples 1 and 2 were labeled with iTRAQ reagents (iTRAQ 114 and iTRAQ 117) and the combined samples were analyzed with a nano-flow liquid chromatography system coupled online to a tandem mass spectrometer (LC-MS/MS) experiment followed by iTRAQ reporter ion quantification in the MS/MS spectra as described in Example 2. The identified kinases are shown in Table 7 including the percent competition values for the sample to which 10 μM free compound had been added. In total of 83 different kinases were identified and competed by different degrees.
# [2] = target: T2, kinases from mixed HeLa placenta lysates (Homo sapiens, UniProt O43318); details: kinase MAP3K7; 10 μM free compound; HeLa Placenta lysate mix
# T2 construct: capturing and identification of kinases from mixed HeLa placenta lysates; endogenous in cells; host or cells: mixed lysate of HeLa cells and placenta tissue
# Protocol: as §1
# [3] = target: T3, kinases from mixed HeLa placenta lysates (Homo sapiens, UniProt O75460); details: kinase IRE1; 10 μM free compound; HeLa Placenta lysate mix
# T3 construct: capturing and identification of kinases from mixed HeLa placenta lysates; endogenous in cells; host or cells: mixed lysate of HeLa cells and placenta tissue
# Protocol: as §1
# [4] = target: T4, kinases from mixed HeLa placenta lysates (Homo sapiens, UniProt P06493); details: kinase CDC2; 10 μM free compound; HeLa Placenta lysate mix
# T4 construct: capturing and identification of kinases from mixed HeLa placenta lysates; endogenous in cells; host or cells: mixed lysate of HeLa cells and placenta tissue
# Protocol: as §1
# [5] = target: T5, kinases from mixed HeLa placenta lysates (Homo sapiens, UniProt P07332); details: kinase FES; 10 μM free compound; HeLa Placenta lysate mix
# T5 construct: capturing and identification of kinases from mixed HeLa placenta lysates; endogenous in cells; host or cells: mixed lysate of HeLa cells and placenta tissue
# Protocol: as §1
# [6] = target: T6, kinases from mixed HeLa placenta lysates (Homo sapiens, UniProt P08581); details: kinase MET; 10 μM free compound; HeLa Placenta lysate mix
# T6 construct: capturing and identification of kinases from mixed HeLa placenta lysates; endogenous in cells; host or cells: mixed lysate of HeLa cells and placenta tissue
# Protocol: as §1
# [7] = target: T7, kinases from mixed HeLa placenta lysates (Homo sapiens, UniProt P35968); details: kinase KDR; 10 μM free compound; HeLa Placenta lysate mix
# T7 construct: capturing and identification of kinases from mixed HeLa placenta lysates; endogenous in cells; host or cells: mixed lysate of HeLa cells and placenta tissue
# Protocol: as §1
# [8] = target: T8, kinases from mixed HeLa placenta lysates (Homo sapiens, UniProt P36897); details: kinase TGFbR1; 10 μM free compound; HeLa Placenta lysate mix
# T8 construct: capturing and identification of kinases from mixed HeLa placenta lysates; endogenous in cells; host or cells: mixed lysate of HeLa cells and placenta tissue
# Protocol: as §1
# [9] = target: T9, kinases from mixed HeLa placenta lysates (Homo sapiens, UniProt P43405); details: kinase SYK; 10 μM free compound; HeLa Placenta lysate mix
# T9 construct: capturing and identification of kinases from mixed HeLa placenta lysates; endogenous in cells; host or cells: mixed lysate of HeLa cells and placenta tissue
# Protocol: as §1
# [10] = target: T10, kinases from mixed HeLa placenta lysates (Homo sapiens, UniProt P45984); details: kinase JNK2; 10 μM free compound; HeLa Placenta lysate mix
# T10 construct: capturing and identification of kinases from mixed HeLa placenta lysates; endogenous in cells; host or cells: mixed lysate of HeLa cells and placenta tissue
# Protocol: as §1
# [11] = target: T11, kinases from mixed HeLa placenta lysates (Homo sapiens, UniProt P68400); details: kinase CK2a1; 10 μM free compound; HeLa Placenta lysate mix
# T11 construct: capturing and identification of kinases from mixed HeLa placenta lysates; endogenous in cells; host or cells: mixed lysate of HeLa cells and placenta tissue
# Protocol: as §1
# [12] = target: T12, kinases from mixed HeLa placenta lysates (Homo sapiens, UniProt Q04771); details: kinase ALK2; 10 μM free compound; HeLa Placenta lysate mix
# T12 construct: capturing and identification of kinases from mixed HeLa placenta lysates; endogenous in cells; host or cells: mixed lysate of HeLa cells and placenta tissue
# Protocol: as §1
# [13] = target: T13, kinases from mixed HeLa placenta lysates (Homo sapiens, UniProt Q12866); details: kinase MER; 10 μM free compound; HeLa Placenta lysate mix
# T13 construct: capturing and identification of kinases from mixed HeLa placenta lysates; endogenous in cells; host or cells: mixed lysate of HeLa cells and placenta tissue
# Protocol: as §1
# [14] = target: T14, kinases from mixed HeLa placenta lysates (Homo sapiens, UniProt Q13163); details: kinase MAP2K5; 10 μM free compound; HeLa Placenta lysate mix
# T14 construct: capturing and identification of kinases from mixed HeLa placenta lysates; endogenous in cells; host or cells: mixed lysate of HeLa cells and placenta tissue
# T14 sequence (Q13163 whole entry): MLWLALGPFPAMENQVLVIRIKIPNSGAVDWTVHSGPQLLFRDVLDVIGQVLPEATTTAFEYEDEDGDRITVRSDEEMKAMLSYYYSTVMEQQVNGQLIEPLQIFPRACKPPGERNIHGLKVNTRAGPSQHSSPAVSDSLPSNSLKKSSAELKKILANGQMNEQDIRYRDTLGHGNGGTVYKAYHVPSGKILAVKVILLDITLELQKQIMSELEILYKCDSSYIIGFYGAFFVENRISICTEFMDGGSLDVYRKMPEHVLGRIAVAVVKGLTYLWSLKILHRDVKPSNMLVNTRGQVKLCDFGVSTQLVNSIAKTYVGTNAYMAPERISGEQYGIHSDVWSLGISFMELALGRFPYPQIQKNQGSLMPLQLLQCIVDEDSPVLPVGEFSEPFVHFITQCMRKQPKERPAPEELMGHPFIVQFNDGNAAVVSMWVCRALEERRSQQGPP
# Protocol: as §1
# [15] = target: T15, kinases from mixed HeLa placenta lysates (Homo sapiens, UniProt Q13233); details: kinase MAP3K1; 10 μM free compound; HeLa Placenta lysate mix
# T15 construct: capturing and identification of kinases from mixed HeLa placenta lysates; endogenous in cells; host or cells: mixed lysate of HeLa cells and placenta tissue
# Protocol: as §1
# [16] = target: T16, kinases from mixed HeLa placenta lysates (Homo sapiens, UniProt Q13555); details: kinase CaMK2g; 10 μM free compound; HeLa Placenta lysate mix
# T16 construct: capturing and identification of kinases from mixed HeLa placenta lysates; endogenous in cells; host or cells: mixed lysate of HeLa cells and placenta tissue
# Protocol: as §1
# [17] = target: T17, kinases from mixed HeLa placenta lysates (Homo sapiens, UniProt Q15349); details: kinase RSK3; 10 μM free compound; HeLa Placenta lysate mix
# T17 construct: capturing and identification of kinases from mixed HeLa placenta lysates; endogenous in cells; host or cells: mixed lysate of HeLa cells and placenta tissue
# Protocol: as §1
# [18] = target: T18, kinases from mixed HeLa placenta lysates (Homo sapiens, UniProt Q16584); details: kinase MLK3; 10 μM free compound; HeLa Placenta lysate mix
# T18 construct: capturing and identification of kinases from mixed HeLa placenta lysates; endogenous in cells; host or cells: mixed lysate of HeLa cells and placenta tissue
# Protocol: as §1
# [19] = target: T19, kinases from mixed HeLa placenta lysates (Homo sapiens, UniProt Q5S007); details: kinase LRRK2; 10 μM free compound; HeLa Placenta lysate mix
# T19 construct: capturing and identification of kinases from mixed HeLa placenta lysates; endogenous in cells; host or cells: mixed lysate of HeLa cells and placenta tissue
# Protocol: as §1
# [20] = target: T20, kinases from mixed HeLa placenta lysates (Homo sapiens, UniProt Q96C45); details: kinase ULK4; 10 μM free compound; HeLa Placenta lysate mix
# T20 construct: capturing and identification of kinases from mixed HeLa placenta lysates; endogenous in cells; host or cells: mixed lysate of HeLa cells and placenta tissue
# T20 sequence (Q96C45 whole entry): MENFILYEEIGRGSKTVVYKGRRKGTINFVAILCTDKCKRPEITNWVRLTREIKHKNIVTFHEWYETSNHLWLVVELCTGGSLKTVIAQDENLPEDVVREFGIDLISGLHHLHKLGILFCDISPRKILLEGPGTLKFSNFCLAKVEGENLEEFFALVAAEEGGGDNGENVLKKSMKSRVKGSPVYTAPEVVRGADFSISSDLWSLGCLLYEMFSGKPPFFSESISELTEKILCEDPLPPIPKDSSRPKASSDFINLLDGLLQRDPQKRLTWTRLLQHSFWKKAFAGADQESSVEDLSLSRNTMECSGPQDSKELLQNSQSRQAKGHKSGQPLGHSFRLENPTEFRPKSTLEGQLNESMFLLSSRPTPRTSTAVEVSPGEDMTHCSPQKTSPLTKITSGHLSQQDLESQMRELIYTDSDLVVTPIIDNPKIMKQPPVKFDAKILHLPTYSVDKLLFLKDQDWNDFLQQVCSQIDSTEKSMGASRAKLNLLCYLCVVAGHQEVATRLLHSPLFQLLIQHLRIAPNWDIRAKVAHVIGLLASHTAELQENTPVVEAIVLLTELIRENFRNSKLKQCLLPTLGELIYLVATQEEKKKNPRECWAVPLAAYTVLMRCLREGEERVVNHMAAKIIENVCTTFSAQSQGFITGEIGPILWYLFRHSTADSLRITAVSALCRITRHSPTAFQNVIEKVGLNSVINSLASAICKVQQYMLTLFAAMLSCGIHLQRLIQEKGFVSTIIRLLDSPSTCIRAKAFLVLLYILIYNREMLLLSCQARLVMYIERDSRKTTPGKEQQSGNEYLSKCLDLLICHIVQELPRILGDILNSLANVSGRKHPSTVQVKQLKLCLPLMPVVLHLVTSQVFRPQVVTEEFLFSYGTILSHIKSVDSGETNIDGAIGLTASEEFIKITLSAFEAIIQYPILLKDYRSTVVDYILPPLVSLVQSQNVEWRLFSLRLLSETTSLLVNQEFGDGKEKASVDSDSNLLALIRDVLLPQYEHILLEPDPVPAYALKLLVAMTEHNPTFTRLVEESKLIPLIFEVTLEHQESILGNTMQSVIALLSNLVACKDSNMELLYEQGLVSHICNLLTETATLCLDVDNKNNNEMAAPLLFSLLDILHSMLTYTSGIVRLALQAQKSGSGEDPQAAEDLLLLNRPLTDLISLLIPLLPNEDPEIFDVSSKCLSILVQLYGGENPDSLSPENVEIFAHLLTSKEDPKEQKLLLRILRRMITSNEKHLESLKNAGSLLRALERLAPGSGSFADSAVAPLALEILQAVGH
# Protocol: as §1
# [21] = target: T21, kinases from mixed HeLa placenta lysates (Homo sapiens, UniProt Q9NSY1); details: kinase BIKE; 10 μM free compound; HeLa Placenta lysate mix
# T21 construct: capturing and identification of kinases from mixed HeLa placenta lysates; endogenous in cells; host or cells: mixed lysate of HeLa cells and placenta tissue
# T21 sequence (Q9NSY1 whole entry): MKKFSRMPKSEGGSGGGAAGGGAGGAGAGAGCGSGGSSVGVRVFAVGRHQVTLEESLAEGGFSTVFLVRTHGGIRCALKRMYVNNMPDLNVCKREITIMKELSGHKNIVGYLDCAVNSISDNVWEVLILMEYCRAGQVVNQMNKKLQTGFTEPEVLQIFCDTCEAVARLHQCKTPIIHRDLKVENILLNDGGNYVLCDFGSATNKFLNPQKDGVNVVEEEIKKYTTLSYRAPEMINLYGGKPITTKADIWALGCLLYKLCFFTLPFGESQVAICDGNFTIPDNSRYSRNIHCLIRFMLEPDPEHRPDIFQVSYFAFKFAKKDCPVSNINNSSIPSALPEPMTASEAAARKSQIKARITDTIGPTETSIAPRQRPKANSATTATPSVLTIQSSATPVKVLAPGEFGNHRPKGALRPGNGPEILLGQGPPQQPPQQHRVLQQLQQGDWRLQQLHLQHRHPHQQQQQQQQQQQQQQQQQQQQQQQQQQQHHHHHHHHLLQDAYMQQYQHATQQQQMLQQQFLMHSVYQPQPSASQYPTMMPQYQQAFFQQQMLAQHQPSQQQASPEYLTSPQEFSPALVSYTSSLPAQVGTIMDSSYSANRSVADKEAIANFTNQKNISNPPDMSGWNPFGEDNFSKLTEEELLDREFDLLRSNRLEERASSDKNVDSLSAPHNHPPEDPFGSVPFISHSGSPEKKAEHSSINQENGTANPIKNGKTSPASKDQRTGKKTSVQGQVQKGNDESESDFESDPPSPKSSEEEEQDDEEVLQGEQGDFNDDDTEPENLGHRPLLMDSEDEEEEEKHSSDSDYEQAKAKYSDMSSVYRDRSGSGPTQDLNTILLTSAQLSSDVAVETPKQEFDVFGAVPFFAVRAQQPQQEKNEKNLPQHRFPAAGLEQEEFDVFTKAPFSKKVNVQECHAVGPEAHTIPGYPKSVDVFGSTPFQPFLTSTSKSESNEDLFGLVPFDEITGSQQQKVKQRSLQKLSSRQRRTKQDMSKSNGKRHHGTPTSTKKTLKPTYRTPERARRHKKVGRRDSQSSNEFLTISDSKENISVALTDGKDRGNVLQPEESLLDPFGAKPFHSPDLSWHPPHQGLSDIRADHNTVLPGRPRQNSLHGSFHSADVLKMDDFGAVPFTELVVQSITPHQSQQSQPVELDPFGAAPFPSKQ
# Protocol: as §1
# [22] = target: T22, kinases from mixed HeLa placenta lysates (Homo sapiens, UniProt Q9NWZ3); details: kinase IRAK4; 10 μM free compound; HeLa Placenta lysate mix
# T22 construct: capturing and identification of kinases from mixed HeLa placenta lysates; endogenous in cells; host or cells: mixed lysate of HeLa cells and placenta tissue
# Protocol: as §1
# [23] = target: T23, kinases from mixed HeLa placenta lysates (Homo sapiens, UniProt Q9UHD2); details: kinase TBK1; 10 μM free compound; HeLa Placenta lysate mix
# T23 construct: capturing and identification of kinases from mixed HeLa placenta lysates; endogenous in cells; host or cells: mixed lysate of HeLa cells and placenta tissue
# T23 sequence (Q9UHD2 whole entry): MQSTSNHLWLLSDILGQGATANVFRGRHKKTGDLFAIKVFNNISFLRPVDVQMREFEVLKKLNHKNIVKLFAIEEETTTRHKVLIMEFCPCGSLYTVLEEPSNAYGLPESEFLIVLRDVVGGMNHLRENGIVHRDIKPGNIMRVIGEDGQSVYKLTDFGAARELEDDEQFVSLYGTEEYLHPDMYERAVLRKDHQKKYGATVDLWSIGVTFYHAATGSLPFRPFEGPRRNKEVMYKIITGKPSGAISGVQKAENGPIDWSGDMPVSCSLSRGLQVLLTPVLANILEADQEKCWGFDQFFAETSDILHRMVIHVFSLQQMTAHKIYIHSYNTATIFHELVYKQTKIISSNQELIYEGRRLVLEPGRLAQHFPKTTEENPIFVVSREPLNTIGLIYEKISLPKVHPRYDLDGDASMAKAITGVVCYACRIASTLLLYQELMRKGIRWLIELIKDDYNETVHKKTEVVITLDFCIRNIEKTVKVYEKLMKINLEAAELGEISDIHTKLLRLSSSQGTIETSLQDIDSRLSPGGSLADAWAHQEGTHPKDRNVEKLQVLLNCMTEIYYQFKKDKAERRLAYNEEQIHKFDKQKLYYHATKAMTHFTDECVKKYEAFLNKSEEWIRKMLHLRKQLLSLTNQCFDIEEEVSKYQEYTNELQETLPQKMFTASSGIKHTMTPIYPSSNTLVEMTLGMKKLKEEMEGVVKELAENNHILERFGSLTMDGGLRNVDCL
# Protocol: as §1
# [24] = target: T24, kinases from mixed HeLa placenta lysates (Homo sapiens, UniProt Q9Y616); details: kinase IRAK3; 10 μM free compound; HeLa Placenta lysate mix
# T24 construct: capturing and identification of kinases from mixed HeLa placenta lysates; endogenous in cells; host or cells: mixed lysate of HeLa cells and placenta tissue
# Protocol: as §1
compound,measurement,setting,value
"CS(=O)(=O)Nc1ccccc1Nc1nc(Nc2cccc(OCCN)c2)ncc1F [CZC25342, N-(2-(2-(3-(2-aminoethoxy)phenylamino)-5-fluoropyrimidin-4-ylamino)phenyl)methanesulfonamide]",Competition % GAK,[1],95.9%
same,Competition % MAP3K7,[2],85.8%
same,Competition % IRE1,[3],83.4%
same,Competition % CDC2,[4],94.3%
same,Competition % FES,[5],96.9%
same,Competition % MET,[6],94.2%
same,Competition % KDR,[7],92.5%
same,Competition % TGFbR1,[8],95.6%
same,Competition % SYK,[9],94.8%
same,Competition % JNK2,[10],83.8%
same,Competition % CK2a1,[11],95.2%
same,Competition % ALK2,[12],96.4%
same,Competition % MER,[13],96.5%
same,Competition % MAP2K5,[14],87.4%
same,Competition % MAP3K1,[15],64.6%
same,Competition % CaMK2g,[16],75.2%
same,Competition % RSK3,[17],95.5%
same,Competition % MLK3,[18],94.9%
same,Competition % LRRK2,[19],87.8%
same,Competition % ULK4,[20],84.7%
same,Competition % BIKE,[21],94.8%
same,Competition % IRAK4,[22],95.6%
same,Competition % TBK1,[23],88.8%
same,Competition % IRAK3,[24],86.2%
